One experiment has as its system muskmelon powdery mildew. Briefly: Resistance to powdery mildew of muskmelon plants sprayed with allantoin aqueous solution and inoculated with spore suspension (greenhouse). The following applies: for plant morbidity: inoculated 24 h after first spraying. It counts as in vivo, Podosphaera xanthii. The procedure: Preparation and inoculation of pathogen spore suspension of muskmelon powdery mildew:
Muskmelon leaves with severe powdery mildew were randomly selected from the field, and conidia were transferred to a beaker containing sterile water by a brush and uniformly stirred to obtain the spore suspension of powdery mildew. Spore concentration was measured under an optical microscope by using a blood counting chamber, and the concentration of the spore suspension was adjusted to be 1×10^6spores/mL for later use, which was used for inoculation tests. It was identified that this bacterial suspension was the bacterial suspension of muskmelon powdery mildew.
Muskmelon seedlings were planted in a greenhouse in June. When the muskmelon seedlings grown to the spreading stage, they were divided into a blank group, a pathogen inoculation group, a negative control group and an experimental group. […] The negative control group was sprayed with the sterile water at 5:00 pm to 6:00 pm, spraying was carried out once every three days, and the spraying amount of each time was the same as that of the aqueous solution containing allantoin in the experimental group. 24 hours after the first spraying of the allantoin water solution in the experimental group, the negative control group, the pathogen inoculation group and the experimental group were inoculated with the spore suspension of powdery mildew obtained above after the solution on the leaves was evaporated. After the pathogen inoculation group was infected with powdery mildew, the resistance to powdery mildew of the experimental group and the negative control group was observed (as shown in FIG. 1A-B), and the disease index, morbidity and control efficiency of the experimental group were calculated.
Leaf morphology was graded according to the response of the muskmelon leaves infected with powdery mildew. Grade 0: no infection; grade 1: no obvious infection; grade 2: mild infection; grade 3: moderate infection; grade 4: severe infection; and grade 5: whole-leaf infection. Disease index=sum of disease grade numbers of all leaves of an individual plant/number of leaves of the individual plant×the highest disease grade of the leaves of the individual plant Morbidity=number of infected individual plants/total number of investigated individual plants×100% Control efficiency=number of uninfected individual plants/total number of investigated individual plants×100%
Muskmelon seedlings were planted in a greenhouse in June. When the muskmelon seedlings grown to the three-leaves and one-bud stage, they were divided into a blank group, a pathogen inoculation group, a negative control group and an experimental group. The muskmelon leaves in the experimental group were sprayed with an aqueous solution containing allantoin with the concentration of 1050 mg/L at 5:00 pm to 6:00 pm, spraying was carried out once every three days, and a medicament was uniformly covered on the leaves for each time of spraying. The negative control group was sprayed with the sterile water at 5:00 pm to 6:00 pm, spraying was carried out once every three days, and the spraying amount of each time was the same as that of the aqueous solution containing allantoin in the experimental group. 24 hours after the first spraying of the allantoin water solution in the experimental group, the negative control group, the pathogen inoculation group and the experimental group were inoculated with the spore suspension of powdery mildew obtained above after the solution on the leaves was evaporated. After the pathogen inoculation group was infected with powdery mildew, the resistance to powdery mildew of the experimental group was observed (as shown in FIG. 2A-B), and the disease index, morbidity and control efficiency of the experimental group were calculated.

Experiment [1] relates to pathogen of muskmelon gummy stem blight. In words: Plate experiment of inhibitory effect on pathogen of muskmelon gummy stem blight (PDA medium). It counts as cell-based. The following applies: allantoin aqueous solution 700 mg/L and 1050 mg/L smeared on PDA plates, 7 days, 28° C. The method, then:
Based on the purpose of study, the inventor designed a plate experiment. Considering that powdery mildew is a living parasitic fungi and can only grow and reproduce on living plants, a PDA medium cannot be used for culturing, so that pathogen of muskmelon gummy stem blight is used for experiment. The specific experiment method is as follows: a PDA medium was prepared and poured into plates; equal amounts of an allantoin aqueous solution with the concentration of 700 mg/L, an allantoin aqueous solution with the concentration of 1050 mg/L and sterile water were respectively smeared on three plates, and then a bacterial cake of the pathogen of muskmelon gummy stem blight was inoculated in the center of each plate; the plates were cultured for 7 days under 28° C., and the growth of the pathogen of muskmelon gummy stem blight in the three plates was observed.

Setting [2] is: Example 3: 700 mg/L allantoin aqueous solution sprayed on leaves once every three days, spreading stage.
The mark [3] stands for this setting: Example 4: 1050 mg/L allantoin aqueous solution sprayed on leaves once every three days, three-leaves and one-bud stage.

With `NC(=O)NC1NC(=O)NC1=O` (stereo not shown) [allantoin], the control efficiency in the experiment on muskmelon powdery mildew (setting [2]) and in the experiment with muskmelon powdery mildew (setting [3]) was 100% throughout. The disease index in the experiment with muskmelon powdery mildew (setting [2]) and with muskmelon powdery mildew (setting [3]) was 0 each time. In addition, the plant morbidity in the experiment with muskmelon powdery mildew (setting [2]) stood at 0%; in the experiment on muskmelon powdery mildew (Example 4: 1050 mg/L allantoin aqueous solution sprayed on leaves once every three days, three-leaves and one-bud (seedling) stage), 0%. The “powdery mildew spots on the leaves” value was “no powdery mildew spot is generated on the leaves” in the experiment on muskmelon powdery mildew (Example 3: 700 mg/L allantoin aqueous solution, spreading stage (FIG. 1A)); “no powdery mildew spot is generated on the leaves” in the experiment with muskmelon powdery mildew (Example 4: 1050 mg/L allantoin aqueous solution, three-leaves and one-bud stage (FIG. 2)). In the experiment with muskmelon powdery mildew (aqueous solution containing allantoin sprayed on leaves in the spreading stage or the three-leaves and one-bud stage), the “control efficiency (summary statement)” value is reported as no more than 100%. Moreover, the “growth of the pathogen of muskmelon gummy stem blight on plate” value in experiment [1] is recorded as “does not inhibit the growth”.

The record behind these values is US12075778B2, “Inhibitor for resisting muskmelon powdery mildew as well as preparation method and application thereof” (Northeast Agricultural University, priority 2022, dated 2024).
